Test [1] deals with hematopoietic stem/progenitor cells. Nature of the test: Inducing differentiation of hematopoietic stem/progenitor cells into NK cells (CD3-CD56+). The class given is cell-based. Conditions: GABA pathway activator in initial differentiation medium; control group 75.6%; FIG. 1. Here is the method:
(§1) The experiment was carried out according to the following steps: • (1) Inoculating hematopoietic stem/progenitor cells into an initial differentiation medium and culturing at 35-39° C. and 3-7%0CO2 for 5 days; • (2) Continuing culturing cells in NIK differentiation medium I for 3-5 days; • (3) Continuing culturing the cells in NK differentiation medium II; replacing half of the culture medium every 5 to 6 days for 22 to 28 days or until NK cells are obtained. • (4) Basal differentiation medium: DMEM high glucose medium, Ham's F-12Nutrient Mix, GlutaMAX™ supplement medium, heat-inactivated human AB serum, L-glutamic acid, 2-mercaptoethanol, sodium selenite, aminoethanol and L-ascorbic acid. • (5) Initial differentiation medium: basal differentiation medium, SCF (15-25 ng/mL); IL3 (3-7 ng/mL); IL7 (15-25 ng/mL); IL15 (8-12 ng/mL); Flt3-L (8-12 ng/mL); GABA pathway activator. • (6) NK differentiation medium I: basal differentiation medium; SCF (15-25 ng/mL); IL3 (3-7 ng/mL); IL7 (15-25 ng/mL); IL15 (8-12 ng/mL); Flt3-L (8-12 ng/mL). • (7) NK differentiation medium II: basal differentiation medium; SCF (15-25 ng/mL); IL15 (8-12 ng/mL); IL7 (15-25 ng/mL); Flt3-L (8-12 ng/mL).
CD3 is a marker of T cells, CD56 is a marker of NK cells, and the characterization of NK cells is CD3-CD56+. […]

Test [2] shares this test system. Nature of the test: Flow cytometry analysis of induced NK cells for cytotoxic markers (CD16, CD314, CD335, CD336). In kind it is cell-based. The conditions noted are these: for efficiency of obtaining CD16+CD56+ NK cells: control group 5.45%, FIG. 2; for efficiency of obtaining CD314+ NK cells: control group 10.1%, FIG. 3; for efficiency of obtaining CD335+ NK cells: control group 12.4%, FIG. 4; for efficiency of obtaining CD336+ NK cells: control group 35.7%, FIG. 5. The procedure:
as §1
Flow cytometry analysis of induced NK cells
(1) Collection of NK cells: The cells were centrifuged at 300 g for 5 min; the supernatant was discarded, an equal volume of FACS buffer was added to wash and resuspend the cells, and the cells were centrifuged; the above steps were repeated twice; the cells were centrifuged and the supernatant was discarded, and thereafter, 125 μL of FACS buffer was added to resuspend the cells.
(2) Cell staining: 2.5 μL of labeled antibody was added to the cell suspension (volume ratio of labeled antibody:cell=1:50), the system was mixed well, and allowed to react at room temperature in the dark for 30 min; after centrifugation, the supernatant was discarded; 1 mL of FACS buffer was added to wash and resuspend the cells, the cells were centrifuged, and the above steps were repeated twice; the cells were centrifuged and the supernatant was discarded, and thereafter 250 μL of FACS buffer was added to resuspend the cells, the system was transferred to a Falcon flow tube, and placed on ice; 0.25 μL of DAPI was added before loading, the system was mixed well for later loading and detection.
(3) Preparation of single-color compensation control: The microspheres were mixed evenly by inverting vigorously at least 10 times or pulse vortexing; to each EP tube, 1 drop of UltraCompe Beads was added, then 1 μL of fluorescent antibody conjugate was added, the system was well mixed by blowing-suction with a pipette, and incubated at room temperature in the dark for 30 min; 1 mL of FACS buffer was added to each EP tube, the system was centrifuged at 400 g for 5 min at room temperature; the supernatant was sucked out carefully without removing the beads, and then 250 μL of FACS buffer was added to each test tube; the sample was mixed evenly by flicking or pulse vortexing before analysis.
(4) Detection on the flow cytometer: Before detection, the stained cells were placed on ice to prevent cell aggregation; at least 10,000 cells were tested for each sample; unstained cells were analyzed on the flow cytometer, and appropriate FSC and side scatter SSC as well as the voltage of the fluorescence detector PMT were set. […]

SMILES strings stand for the structures.

These results are taken from patent US20250163379A1, “METHOD FOR DIFFERENTIATING HEMATOPOIETIC STEM/PROGENITOR CELLS INTO NK CELLS” (HEMACELL BIOTECHNOLOGY INC., priority 2022, published 2025).

Consider `NC/C=C/C(=O)O` [TACA, trans-4-aminocrotonic acid], for which, in test [1], the “efficiency of obtaining NK cells (CD3-CD56+)” value is 87.2%. Further, in test [2], the “efficiency of obtaining CD16+CD56+ NK cells” value was 9.71%, the “efficiency of obtaining CD314+ NK cells” value is recorded as 18.4%, the “efficiency of obtaining CD335+ NK cells” value stood at 21.1% and the “efficiency of obtaining CD336+ NK cells” value was determined as 48.8%.
`NCCCC(=O)O` [GABA, γ-aminobutyric acid]: the “efficiency of obtaining NK cells (CD3-CD56+)” value in test [1] stood at 88.3%. For the same compound, in test [2], the “efficiency of obtaining CD16+CD56+ NK cells” value is 5.86%, the “efficiency of obtaining CD314+ NK cells” value came to 11.0%, the “efficiency of obtaining CD335+ NK cells” value is reported as 18.2% and the “efficiency of obtaining CD336+ NK cells” value came to 48.2%.
